Measurements: patent publication US5298616A, “Sulfated O-polysaccharide-trehaloses” (Hoffmann-La Roche Inc., priority 1990, dated 1994)

Tests used:
citrated human plasma = assay: aPTT (activated partial thromboplastin time) Test; assay type: biochemical; conditions: concentration which doubles the coagulation time vs control
Method: (§1) The blood coagulation-inhibiting activity was determined as follows:
aPTT (activated partial thromboplastin time) Test (see Walenga et al., CRC Critical Reviews in Laboratory Sciences 22 (4) 361-389 (1986)): 100 μl of citrated human plasma, which contains various concentrations of test compound, is incubated at 37° C. for 8 minutes with 100 μl of Activated Thrombofax (Ortho Diagnostics, Raritan, N.J., U.S.A.). 100 μl of prewarmed 25 mM calcium chloride solution are then added and the coagulation time is measured in a Fibrometer Coagulation Timer (Becton Dickinson, Basle).
(§2) The activity of the test compound is given as the IC50, which is that concentration [μg/ml] which leads to a coagulation time which is double the control value.

Factor Xa [1] = target: T1, Factor Xa (Bos taurus, UniProt P00743); assay: anti-Xa Clotting Assay; assay type: biochemical; conditions: concentration which doubles the coagulation time vs control; citrated plasma
T1 sequence (P00743 234-492 limits assumed): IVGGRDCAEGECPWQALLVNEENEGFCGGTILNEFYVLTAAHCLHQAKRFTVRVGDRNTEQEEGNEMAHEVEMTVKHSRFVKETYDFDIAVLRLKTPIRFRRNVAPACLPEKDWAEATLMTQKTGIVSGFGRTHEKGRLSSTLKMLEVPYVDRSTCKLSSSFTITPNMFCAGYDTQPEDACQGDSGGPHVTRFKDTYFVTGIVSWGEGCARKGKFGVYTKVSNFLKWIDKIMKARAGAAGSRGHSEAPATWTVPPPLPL
Method: as §1
anti-Xa Clotting Assay: 25 μl of citrated plasma having various concentrations of test compound are mixed with 75 μl of Factor Xa (Diagnostic Reagents, Thame, Oxon, Great Britain) diluted 1:100 in 0.63% citrate buffer (pH 7.3) which contains 41 mM imidazole, 82 mM NaCl and 0.1% albumin. After warming to 37° C. for 2 minutes 200 μl of a 1:1 mixture of Factor X Deficient Plasma (Diagnostic Reagents) and Platelet Substitute (Diagnostic Reagents) are added and the mixture is incubated at 37° C. for 20 seconds. After the addition of 100 μl of prewarmed 50 mM calcium chloride solution the coagulation time is measured in a Fibrometer.
as §2

thrombin = thrombin (Homo sapiens, UniProt P00734); assay: Inhibition of Thrombin in the Chromogenic Substrate Assay; assay type: biochemical; conditions: amidolytic activity reduced by 50% vs plasma control; anti-thrombin III, S-2238
Method: as §1
The buffer solution used consisted of 50 mM Tris buffer, 180 mM NaCl, 7.5 mM EDTA Na2, 1% PEG 6000 and 0.02% Tween 80, pH 8.4. The sample consisted of 50 μl of buffer, 30 μl of anti-thrombin Ill (1 U/ml), Kabi Diagnostics) and 20 μl of plasma which contained various concentrations of test compounds. 30 μl of sample solution and 20 μl of water with 180 μl of thrombin were added to the test cuvette in the automatic analyzer. […] The liberation of pNA (p-nitroaniline) was followed during 60 seconds at 405 nm in 10 second intervals in comparison to water as the blank.

Factor Xa [2] = target: T1, Factor Xa; assay: Inhibition of Factor Xa in the Chromogenic Substrate Assay; assay type: biochemical; conditions: amidolytic activity reduced by 50% vs plasma control; S-2222
Method: as §1
Inhibition of Thrombin or Factor Xa in the Chromogenic Substrate Assay (Teien et al., Thrombosis Research 10, 399-410 (1977)): The test was performed in a Cobas-Bio centrifugal automatic spectrophotometer. The buffer solution used consisted of 50 mM Tris buffer, 180 mM NaCl, 7.5 mM EDTA Na2, 1% PEG 6000 and 0.02% Tween 80, pH 8.4. The sample consisted of 50 μl of buffer, 30 μl of anti-thrombin Ill (1 U/ml), Kabi Diagnostics) and 20 μl of plasma which contained various concentrations of test compounds. 30 μl of sample solution and 20 μl of water with 180 μl of thrombin were added to the test cuvette in the automatic analyzer. After incubation at 37° C. for 240 seconds 60 μl of S-2238 (H-D-Phe-Pip-Arg-NH.pNA, Kabi Diagnostics, Mondal, Sweden, 0.75 mM in water) and 20 μl of water were added. The liberation of pNA (p-nitroaniline) was followed during 60 seconds at 405 nm in 10 second intervals in comparison to water as the blank. The inhibitory activity is given as the IC50, which is the concentration [μg/ml] at which the amidolytic activity of thrombin is reduced by 50% in comparison to the plasma control value.
The inhibition of Factor Xa was measured in the same manner using a solution of Factor Xa (2.8 nkat/ml and 2 mM S-2222 (Bz-CO-Ile-Glu-Arg-NH.pNA, Kabi Diagnostics) in water in place of thrombin and, respectively, S-2238.

rat smooth muscle cells = assay: anti-proliferative activity in cell cultures; assay type: cell-based; conditions: for Anti-proliferative activity % inhibition: 100 μg/ml test substance, 7 days, vs non-inhibited growth
Method: The anti-proliferative activity of the substances was determined in cell cultures as follows: rat smooth muscle cells (cultivated in DMEM with 10% FCS at 37° C. and 5% CO2) were seeded in 24 well cell culture plates with a density of 8×10^3 cells/well. After 4 hours the number of adhered cells was determined and the substances to be tested ([…]) were added. Cells to which no substance was added served as a comparison and heparin (100 μg/ml) served as a positive control. The cells were incubated for 7 days and then the cell number was determined. The antiproliferative activity of the individual substances was calculated as the % inhibition in comparison to non-inhibited growth: [formula] wherein cell number(d=O) cell number after 4 h cell number(-)=cell number to which no test
substances was added, after 7 days.
cell number(inhib)=cell number with
100 μg/ml of the test substance.

| Substance | Anti-coagulation activity IC50, Coagulation inhibition aPTT (citrated human plasma) | Anti-coagulation activity IC50, Coagulation inhibition Xa (Factor Xa [1]) | Anti-coagulation activity IC50, Amidolytic activity Thrombin (thrombin) | Anti-coagulation activity IC50, Amidolytic activity F.Xa (Factor Xa [2]) | Anti-proliferative activity % inhibition (rat smooth muscle cells) | anti-proliferative activity (rat smooth muscle cells; result in words) |
| --- | --- | --- | --- | --- | --- | --- |
| sulphated 4-O-(β-D-glucopyranosyl) -α,α-D-trehalose [Example 2C] | 40 µg/mL | 115 µg/mL | > 1000 µg/mL | > 1000 µg/mL | 38% |  |
| sulphated 4-O-(β-D-maltosyl)-α,α-D-trehalose [Example 3C] | 12 µg/mL | 33.5 µg/mL | > 1000 µg/mL | > 1000 µg/mL | 59% |  |
| sulphated 4,4'-bis-O-(β-D-maltosyi)-α,α-D-trehalose [Example 6D] | 14.5 µg/mL | 28.5 µg/mL | > 1000 µg/mL | 900 µg/mL | 67% |  |
| sulphated 4-O-(α-D-maltotriosyl)-α,α-D-trehalose [Example 1G] | 11 µg/mL | 31 µg/mL | > 1000 µg/mL | 960 µg/mL | 57% |  |
| Heparin [reference compound] | 1.2 µg/mL | 0.6 µg/mL | 1.9 µg/mL | 2.7 µg/mL |  | anti-proliferatively active |
| sulphated 4-O -(β-D-maltotriosyl)-α,α-D-trehalose [Example 4C] | 11 µg/mL | 32 µg/mL | > 1000 µg/mL | > 1000 µg/mL | 64% |  |
| sulphated 4,4'-bis -O-(β-D-glucopyranosyl)-α,α-D-trehalose [Example 7C] | 13.5 µg/mL | 34 µg/mL | > 1000 µg/mL | > 1000 µg/mL | 49% |  |
| sulphated 4-O-(β-D-cellobiosyl)-α,α-D-trehalose [Example 5C] | 33 µg/mL | 69 µg/mL | > 1000 µg/mL | > 1000 µg/mL | 39% |  |
